The record followed here is PMC6125190 (Cell metabolism, 2018).

This test has as its target T1, CPT-1a (carnitine palmitoyltransferase-1) (Mus musculus, UniProt P97742).
T1 sequence (P97742 2-773): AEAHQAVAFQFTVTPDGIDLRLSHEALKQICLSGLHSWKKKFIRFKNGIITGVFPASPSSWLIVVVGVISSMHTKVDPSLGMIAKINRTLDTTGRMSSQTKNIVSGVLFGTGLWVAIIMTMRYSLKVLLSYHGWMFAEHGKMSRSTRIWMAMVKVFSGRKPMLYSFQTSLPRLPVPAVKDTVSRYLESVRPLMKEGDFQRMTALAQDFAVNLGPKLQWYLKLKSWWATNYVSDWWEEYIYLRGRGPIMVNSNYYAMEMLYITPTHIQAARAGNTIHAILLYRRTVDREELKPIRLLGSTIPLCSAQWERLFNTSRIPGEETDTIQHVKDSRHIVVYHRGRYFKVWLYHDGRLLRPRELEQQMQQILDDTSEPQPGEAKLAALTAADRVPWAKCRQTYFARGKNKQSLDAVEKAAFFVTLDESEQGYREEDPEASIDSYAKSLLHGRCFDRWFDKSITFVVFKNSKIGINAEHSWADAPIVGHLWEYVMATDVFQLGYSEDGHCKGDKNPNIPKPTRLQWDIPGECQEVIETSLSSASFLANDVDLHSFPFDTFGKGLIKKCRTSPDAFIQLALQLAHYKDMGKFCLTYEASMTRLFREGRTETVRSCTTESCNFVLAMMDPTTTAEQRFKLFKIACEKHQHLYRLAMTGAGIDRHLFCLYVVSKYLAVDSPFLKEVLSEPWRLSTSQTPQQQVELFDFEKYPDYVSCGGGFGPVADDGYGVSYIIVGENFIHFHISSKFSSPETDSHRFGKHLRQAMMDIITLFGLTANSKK
The format is biochemical.

With `CCOC(=O)[C@@]1(CCCCCCOc2ccc(Cl)cc2)CO1` [Eto, etomoxir], the “palmitoyl-CoA-driven respiration in permeabilized mouse BMDMs pretreated with et” value was below 3 µM.
